# Laboratory results as given in patent US7807623B2, “Use of pentagastrin to inhibit gastric acid secretion or as a diuretic” (The Regents of the University of California, priority 1999, dated 2010).
# Several values for one entry are separate records, joined by “and”; a condition that tells them apart may be missing. Equal values may be shown once.
# Tests used:
# [1] = cited from earlier work
# [2] = tested on: Pentagastrin-Induced Gastric Acid Secretion; assay: Continuous pentagastrin infusion model: gastric acid output after single i.v. dose; type: in vivo, human; conditions: for Acid Output, Treatment Period 0-6 h / Acid Output, Treatment Period 6-12 h / Acid Output, Treatment Period 12-18 h / Acid Output, Treatment Period 18-24 h: continuous PG 1 μg/kg/h, mean ± SD; for duration of action (time AO remained <10 mEq/h) / onset of response (time until AO decreased to <10 mEq/h and remained below for 1 h): mean±SD
# Protocol: After 60 min of pentagastrin infusion, subjects received a single dose of i.v. pantoprazole (20, 40, 80, or 120 mg), i.v. famotidine (20 mg), or saline placebo. […] The study protocol was approved by the UCLA Institutional Review Board and conducted according to the provisions of the Declaration of Helsinki and its amendments. Written informed consent was obtained from each participant before enrollment, and the identity of each patient was kept confidential. Each subject underwent a prestudy screening that included a physical examination, electrocardiogram (ECG), laboratory blood and urine analysis, and a pregnancy test for women. The laboratory test included a complete blood count, blood chemistry tests, a test for human immunodeficiency virus, a screening for hepatitis B and C, and a urine drug screen. Subjects were excluded from the study if abnormalities in these parameters were detected. Maximum AO (MAO) were also determined during the screening period. MAO was estimated by the subcutaneous injection of PG (6 μg/kg), after which four 15-min samples were collected and analyzed (Table 1). […] Subjects who completed the screening examination and were eligible for the study were assigned to one of six treatment groups to receive i.v. doses of pantoprazole (20, 40, 80, or 120 mg), i.v. famotidine (20 mg), or placebo (normal saline). […] To stimulate MAO, subjects received an infusion of PG for 25 h (Peptavalon, Wyeth-Ayerst; 1.0 μg/kg/h) begun 1 h before the start of the study drug infusion. Gastric aspirates were collected by means of nasogastric (NG) tube in 15-min fractions from 1 h before study drug treatment through the end of treatment h 2 and in 30 min fractions from h 3 through the end of h 24. The variables measured were onset of response (time until AO decreased to <10 mEq/h and remained below this level for 1 h), duration of response (time from onset until time when AO levels rose to >10 mEq/h and remained so for 1 h), and cumulative AO 15 over 24 h. […] On the evening before study day 1, participants were admitted to the UCLA Clinical Research Center. […] PG administration and MAO analyses were performed. […] Because no fluid or food p.o. was permitted during the study period, subjects received maintenance i.v. fluid to prevent dehydration. Vital signs and electrolytes were monitored during this time. […] (1973) Dig. […] Because this was an exploratory study, statistical analysis consisted of presenting means and standard deviations.
# [3] = Adverse event monitoring in the pentagastrin infusion study; type: in vivo, human; conditions: for subjects who withdrew because of adverse events: healthy subjects under continuous PG infusion
# Excerpt: Adverse events were monitored continuously in the Clinical Research Center. Treatment-emergent adverse events were defined as adverse events not present at baseline or events present at baseline that worsened during treatment.
# CCKB/gastrin receptor [4] = biological target: T1, CCKB/gastrin receptor (Rattus norvegicus, UniProt P30553); assay: Meal gavage: renal hemodynamics, sodium excretion and urine volume; type: in vivo
# T1 construct: act specifically at CCKB/gastrin receptors on renal tubular cells; from tissue; host or cells: kidney of living male Wistar-Kyoto rats (in vivo)
# T1 sequence (P30553 1-452): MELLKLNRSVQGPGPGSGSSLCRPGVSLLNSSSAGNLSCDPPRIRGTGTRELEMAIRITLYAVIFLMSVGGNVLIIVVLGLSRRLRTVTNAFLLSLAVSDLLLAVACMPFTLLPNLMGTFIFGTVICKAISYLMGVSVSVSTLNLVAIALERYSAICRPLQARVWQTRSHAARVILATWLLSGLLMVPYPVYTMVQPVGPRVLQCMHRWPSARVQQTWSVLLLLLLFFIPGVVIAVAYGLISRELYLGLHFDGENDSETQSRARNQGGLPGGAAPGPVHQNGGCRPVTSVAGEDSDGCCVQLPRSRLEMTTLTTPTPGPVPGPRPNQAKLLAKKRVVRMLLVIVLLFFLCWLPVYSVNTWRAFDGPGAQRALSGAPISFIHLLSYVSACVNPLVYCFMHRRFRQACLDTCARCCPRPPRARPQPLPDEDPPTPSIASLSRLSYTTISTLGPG
# Protocol: (§1) Male Wistar-Kyoto rats (300 grams, 10-12 weeks old) (Harlan Sprague Dawley, Indianapolis, Ind.) were maintained on a regular Purina rat chow diet. Catheters were placed into the external jugular and femoral veins and left carotid artery and systemic arterial pressure was monitored. The right suprarenal artery was cannulated with a PE-10 catheter heat stretched to 180 mm and a flow catheter was secured around the right renal artery (Transonic Systems, Ithaca, N.Y.). GFR was determined after an intravenous infusion of normal saline containing [^14C]-inulin (0.01 mCi/10 ml (New England Nuclear, Boston, Mass.) at a rate of 5 ml/100 g body wt. for 30 minutes followed by an infusion of 1.8 ml/100 g body wt/hr). After an equilibration period of 120 minutes, 20 minute collections were begun. Meal gavage studies were performed with 2.5 ml/hr of liquefied rat chow administered via gastric tube. Gastrin 17-1 (Peninsula Laboratories, CA) was diluted in normal saline and infused (10 pmoles/kg/hr) via the right renal artery catheter. Following a basal period, rats received either L-365,260 (80 pmoles/kg, 5 min bolus) or vehicle alone and 20 minute collection periods were begun for determination of sodium and water excretion.
# CCKB/gastrin receptor [5] = biological target: T1, CCKB/gastrin receptor; assay: Intrarenal gastrin infusion: renal hemodynamics, sodium excretion and urine volume; type: in vivo; conditions: L-365,260 80 pmoles/kg bolus after gastrin infusion
# Protocol: as §1
# Na+-K+-ATPase = Na+-K+-ATPase activity in isolated renal tubules after meal; type: biochemical, rat; conditions: direct intrarenal infusion 80 pmoles/kg prior to the meal
# Protocol: Renal tubules (cortical and medullary thick ascending limb of Henle) were isolated (Slobodyansky et al. (1995) Am. J. Physiol. 268: F279-F284) and immediately homogenized (in a Polytron) in 4° C. reaction buffer [4 mM MgCl2, 100 mM tris(hydroxymethyl)aminomethane HCl, pH7.2]. The dephosphorylation of tris(hydroxymethyl)aminomethane-p-nitrophenyl-phosphate was used as the index of Na^+-K^+-ATPase activity (Eisner et al. (1997) Am. J. Physiol. 273: R317-R323).
# [6] = single i.v. doses 80 and 120 mg
# [7] = 80 pmoles/kg bolus, more than 5-fold with meal alone
# [8] = L-365,260 80 pmoles/kg 5 min bolus before meal gavage
smiles,measurement,setting,value
"CSCC[C@H](NC(=O)[C@H](Cc1c[nH]c2ccccc12)NC(=O)CCNC(=O)OC(C)(C)C)C(=O)N[C@@H](CC(=O)O)C(=O)N[C@@H](Cc1ccccc1)C(N)=O [Pentagastrin, N-t-butyloxycarbonyl-Beta-alanyl-L-tryptophyl-L-methionyl-L-aspartyl-L-phenyl-alanyl amide]",solubility in dimethylformamide and dimethylsulfoxide,[1],soluble
same,"solubility in water, ethanol, ether, benzene, chloroform, ethyl acetate",[1],almost insoluble
"NC(N)=Nc1nc(CSCCC(N)=NS(N)(=O)=O)cs1 [Famotidine, famotidine]",Peak inhibition of acid output,[2]; single i.v. dose 20 mg,94%
same,hourly AO averaged over the 24-h period,[2]; single i.v. dose 20 mg,18.2 mEq/h
same,loss of acid-suppressing effectiveness,[2]; single i.v. dose 20 mg,lost effectiveness after 6 h
same,"Acid Output, Treatment Period 0-6 h",[2]; single i.v. dose 20 mg,4.4 ± 2.5 mEq/h
same,"Acid Output, Treatment Period 6-12 h",[2]; single i.v. dose 20 mg,17.7 ± 5.1 mEq/h
same,"Acid Output, Treatment Period 12-18 h",[2]; single i.v. dose 20 mg,25.8 ± 9.3 mEq/h
same,"Acid Output, Treatment Period 18-24 h",[2]; single i.v. dose 20 mg,25.0 ± 10.4 mEq/h
same,duration of action (time AO remained <10 mEq/h),[2]; single i.v. dose 20 mg,6.5 ± 2.1 h
same,onset of response (time until AO decreased to <10 mEq/h and remained below for 1 h),[2]; single i.v. dose 20 mg,0.5 ± 0.2 h
same,subjects who withdrew because of adverse events,[3],No subjects
same,adverse events reported,[3]; i.v. 20 mg group under continuous PG infusion,Three subjects from the famotidine group complained of abdominal pain and dyspepsia and were noted to have small amounts of blood in their NG aspirate
"COc1ccnc(C[S+]([O-])c2nc3ccc(OC(F)F)cc3[nH]2)c1OC (stereo not shown) [Pantoprazole, pantoprazole]",AO suppressed to,"[2]; 80 and 120 mg doses, all subjects, after 1 h and for the full 24-h period",< 10 mEq/h
same,AO suppressed to,"[2]; all i.v. doses (20, 40, 80, 120 mg)",< 10 mEq/h
same,time after administration at which acid-suppressing activity was observed,"[2]; i.v., in general",15 to 20 min
same,Peak inhibition of acid output,[2]; single i.v. dose 20 mg,83%
same,hourly AO averaged over the 24-h period,[2]; single i.v. dose 20 mg,11.9 mEq/h
same,"Acid Output, Treatment Period 0-6 h",[2]; single i.v. dose 20 mg,11.7 ± 10.5 mEq/h
same,"Acid Output, Treatment Period 6-12 h",[2]; single i.v. dose 20 mg,13.6 ± 13.3 mEq/h
same,"Acid Output, Treatment Period 12-18 h",[2]; single i.v. dose 20 mg,15.1 ± 13.7 mEq/h
same,"Acid Output, Treatment Period 18-24 h",[2]; single i.v. dose 20 mg,14.2 ± 8.6 mEq/h
same,duration of action (time AO remained <10 mEq/h),[2]; single i.v. dose 20 mg,8.4 ± 8.0 h
same,Peak inhibition of acid output,[2]; single i.v. dose 40 mg,90%
same,hourly AO averaged over the 24-h period,[2]; single i.v. dose 40 mg,7.6 mEq/h
same,"Acid Output, Treatment Period 0-6 h",[2]; single i.v. dose 40 mg,8.1 ± 5.4 mEq/h
same,"Acid Output, Treatment Period 6-12 h",[2]; single i.v. dose 40 mg,4.8 ± 4.0 mEq/h
same,"Acid Output, Treatment Period 12-18 h",[2]; single i.v. dose 40 mg,7.3 ± 4.1 mEq/h
same,"Acid Output, Treatment Period 18-24 h",[2]; single i.v. dose 40 mg,10.1 ± 3.7 mEq/h
same,Peak inhibition of acid output,[2]; single i.v. dose 80 mg,99%
same,hourly AO averaged over the 24-h period,[2]; single i.v. dose 80 mg,3.3 mEq/h
same,"Acid Output, Treatment Period 0-6 h",[2]; single i.v. dose 80 mg,2.4 ± 1.5 mEq/h
same,"Acid Output, Treatment Period 6-12 h",[2]; single i.v. dose 80 mg,1.2 ± 0.6 mEq/h
same,"Acid Output, Treatment Period 12-18 h",[2]; single i.v. dose 80 mg,3.7 ± 1.9 mEq/h
same,"Acid Output, Treatment Period 18-24 h",[2]; single i.v. dose 80 mg,6.1 ± 3.2 mEq/h
same,duration of action (time AO remained <10 mEq/h),[2]; single i.v. dose 80 mg,21.2 ± 1.9 h
same,onset of response (time until AO decreased to <10 mEq/h and remained below for 1 h),[2]; single i.v. dose 80 mg,0.8 ± 0.3 h
same,Peak inhibition of acid output,[2]; single i.v. dose 120 mg,100%
same,hourly AO averaged over the 24-h period,[2]; single i.v. dose 120 mg,2.4 mEq/h
same,"Acid Output, Treatment Period 0-6 h",[2]; single i.v. dose 120 mg,1.3 ± 0.8 mEq/h
same,"Acid Output, Treatment Period 6-12 h",[2]; single i.v. dose 120 mg,0.7 ± 0.2 mEq/h
same,"Acid Output, Treatment Period 12-18 h",[2]; single i.v. dose 120 mg,3.7 ± 0.7 mEq/h
same,"Acid Output, Treatment Period 18-24 h",[2]; single i.v. dose 120 mg,5.2 ± 0.4 mEq/h
same,onset of response (time until AO decreased to <10 mEq/h and remained below for 1 h),[2]; single i.v. dose 120 mg,0.4 ± 0.2 h
same,duration of acid output suppression,[2]; [6],> 20 h
same,onset of action,[2]; [6],< 1 h
same,suppression of acid output,"[2]; single i.v. doses 80 and 120 mg, all subjects",99-100%
same,suppression of acid output,"[2]; single i.v. doses 80 and 120 mg, all subjects, listed as pantoprazole",> 90%
same,duration of acid output suppression,"[2]; single i.v. doses 80 and 120 mg, listed as pantoprazole",~24 h and < 21 h
same,subjects who withdrew because of adverse events,[3],Three
"Cc1cccc(NC(=O)N[C@@H]2N=C(c3ccccc3)c3ccccc3N(C)C2=O)c1 [L-365,260]",inhibition of meal-stimulated increase in sodium and water excretion,CCKB/gastrin receptor [4]; 80 pmoles/kg bolus,up to 80%
same,effect on meal-stimulated increase in urine flow rate,"CCKB/gastrin receptor [4]; 80 pmoles/kg bolus, compared to vehicle alone",nearly completely inhibited
same,meal-stimulated increase in fractional excretion of sodium (FeNa) in presence of antagonist,CCKB/gastrin receptor [4]; [7],2 fold
same,meal-stimulated increase in urinary sodium (UNaV) in presence of antagonist,CCKB/gastrin receptor [4]; [7],2 fold
same,effect on meal-induced increase in glomerular filtration rate (GFR),CCKB/gastrin receptor [4]; [8],inhibited
same,effect on meal-induced increase in renal blood flow (RBF),CCKB/gastrin receptor [4]; [8],inhibited
same,effect on Mean Arterial Pressure (MAP),"CCKB/gastrin receptor [4]; meal gavage study period, 80 pmoles/kg bolus",No effect
same,effect on gastrin-stimulated FeNa,CCKB/gastrin receptor [5],returned to near baseline values
same,effect on gastrin-stimulated changes in urine flow rate,CCKB/gastrin receptor [5],completely antagonized
same,effect on gastrin-stimulated elevation in urinary excretion of sodium,CCKB/gastrin receptor [5],returned to near baseline values
same,effect on meal induced inhibition of Na+/K+-ATPase activity,Na+-K+-ATPase,complete reversal
